In patent US20260250247A1, “NOVEL INDOLINE DERIVATIVE AND USE THEREOF” (CK REGEON INC., priority 2023, published 2026):

Key:
[1] = target: CXXC5-Dvl interaction (PDZ domain of Dvl (dishevelled) protein / PTD-DBM-FITC); experiment: CXXC5-Dvl binding inhibition, competition of PTD-DBM-FITC on plate-bound Dvl PDZ domain; settings: purified Dvl PDZ domain 5 μg/mL, 10 μM PTD-DBM-FITC, compounds 0.001-100 μM, FITC fluorescence
Procedure: 5 μg/mL of the purified PDZ domain ofDvl (dishevelled) protein was attached to the bottom of a 96-well black immunoplate and left in a chamber at 4° C. for one day. The next day, each well was washed with PBS and 10 μM PTD-DBM-FITC was added. After incubation at room temperature for 3 hours, each well was washed with PBS. Each well was treated with the indoline derivatives at various concentrations (100, 10, 1, 0.1, 0.01, and 0.001 μM) in 100 μL of PBS. After washing with a buffer, fluorescence was measured by FITC using a microplate reader. A competition binding curve showing the degree of CXXC5-Dvl PPI inhibition was constructed using the GraphPad Prism software, and the IC50 value was calculated. […] CK090), and the intermediate compound 5-cyanoindirubin as controls.

3T3-L1 pre-adipocytes = experiment: Inhibition of adipocyte differentiation and lipid accumulation, Oil Red O; assay type: cell-based; settings: Mus musculus, 192 h; 3T3-L1, compound 1 μM, MDI-induced differentiation for 8 days, Oil Red O eluted, absorbance 544 nm; read-out: lipid accumulation rate
Procedure: 3T3-L1 cells were seeded in a 6-well plate at a density of […] cells per well. The cells were grown to 100% confluency in Dulbecco's modified Eagle's medium (DMEM) supplemented with 10% bovine calf serum (BCS; GIBCO). Two days after reaching 100% confluency, differentiation was induced with or without treatment with the indoline compound at a concentration of 1 μM in DMEM containing 10% fetal bovine serum (FBS; GIBCO) and MDI (520 μM methylisobutylxanthine (IBMX; Sigma-Aldrich), 1 μM dexamethasone (Sigma-Aldrich), and 5 μM insulin (GIBCO)). On day 3, the medium was replaced with DMEM containing 10% FBS and 5 μM insulin with or without the indoline compound, and then with a fresh identical medium every 2 days. After differentiation for 8 days, the culture medium was removed, and the cells were washed with PBS and then fixed with 10% formaldehyde for 1 hour. After removing the 10% formaldehyde, the cells were washed thoroughly with distilled water. After that, 60% isopropanol was added and immediately then removed. After washing with distilled water, lipid droplets were stained with an Oil Red O dye solution for 20 minutes and then washed with distilled water. The cells were counterstained with Mayer's hematoxylin. Oil Red O images were visualized using a bright-field microscope (Nikon TE-2000U). To quantify the accumulated lipids, Oil Red O was eluted by adding isopropanol, and absorbance was measured spectrophotometrically at 544 nm using a multi-plate reader.
As A3051 (KY19382) and A3334, self-developed and synthesized materials were used. As BIO, or GSK 3 Inhibitor IX, also known as 6-bromoindirubin-3′-oxime, HY-10580 was purchased commercially.
In FIG. 2, the undifferentiated group (Un Diff) refers to undifferentiated adipocytes, or preadipocytes that had not been induced to differentiate, and the differentiated group (Diff) refers to fully differentiated adipocytes.

[2] = system: lipid droplets / PPARγ in liver tissue; experiment: Liver Oil Red O staining and PPARγ immunohistochemistry in MASH mice; assay type: in vivo, C57BL/6N mice; settings: 25 mg/kg/day orally for 4 weeks
Procedure: (§1) Five-week-old wild-type male C57BL/6N mice were purchased from Orient Bio Co., Ltd. They were allowed to acclimate to the laboratory environment for one week. Mice weighing 18-20 g on average were used in the experiment. To ensure ethical and scientific validity and efficient management of animal experiments, the experiment was conducted with the approval of the Institutional Review Board (IACUC-A-202205-1472-01) of Severance Hospital, Yonsei University College of Medicine.
(§2) The mice were divided into a normal group (NCD) and a high-fat diet group (HFD). The normal group (NCD) was fed a normal chow diet (NCD, Teklad Global 18% protein rodent diet), and the high-fat diet group (HFD) was fed a high-fat diet (HFD, D12492) in which fat accounted for 60% of the total calories, for 8 weeks.
(§3) Mice induced with metabolic dysfunction-associated steatohepatitis (MASH) (hereinafter, referred to as MASH or MASH group) were prepared by administering CCl4 intraperitoneally twice a week for 4 weeks after feeding the high-fat diet (HFD) for 8 weeks. The […] was diluted with corn oil at a ratio of 1:19 and injected at a dosage of 2 mL/kg. The normal group (NOD) was administered the same volume of physiological saline.
(§4) The animals were divided into 7 groups, each with 10 animals.
It was investigated whether the accumulation of triglycerides in the liver is suppressed effectively. For this purpose, liver tissue was extracted from each group, and it was prepared into 10-μm thick cryosections, which were then stained with Oil Red O. Details are as follows. After preparing the 7 groups, the animals were euthanized using carbon dioxide and the liver tissues were extracted. A certain area of the extracted liver tissue was cryosectioned to 10 μm thickness, fixed in 4% neutral paraformaldehyde for 20 minutes at room temperature, and washed with 70% isopropanol (Duksan Pure Chemicals). After staining with the Oil Red O (Sigma-Aldrich) reagent for 20 minutes, the sections were washed thoroughly three times with distilled water. The tissue was counterstained with Mayer's hematoxylin. Then, Oil Red O staining images were visualized using a bright-field microscope (Nikon TE-2000U).
After preparing the 7 groups, the animals were sacrificed using carbon dioxide and the liver tissues were extracted. The extracted tissues were fixed in 4% neutral paraformaldehyde and embedded in paraffin to prepare sections. The paraffin sections were cut to 4-μm thickness, deparaffinized, and then rehydrated. For antigen exposure, slides were autoclaved in a 10 mM sodium citrate buffer (pH 6.0). To block endogenous peroxidase activity prior to peroxidase IHC analysis, the tissues were incubated with 0.3% H2O2 for 10 minutes. The incubated sections were treated with phosphate-buffered saline (PBS) containing 10% NGS and 0.3% Tween-20 for 1 hour at room temperature, treated with primary antibodies of anti-PPARγ (1:50; Abcam), and incubated overnight at 4° C.
The sections treated with the primary antibodies were washed with PBS and incubated with biotinylated anti-mouse (1:400; Dako) or anti-rabbit (1:400; Dako) secondary antibodies for 1 hour at room temperature. The sections incubated with the secondary antibodies were stained with 3,3′-diaminobenzidine (DAB; Dako) for 3-7 minutes and then counterstained with Mayer's haematoxylin. All incubations were performed in a humid chamber. After the staining, images were taken and analyzed using a bright-field microscope (Nikon TE-2000U).

[3] = system: mice induced with metabolic dysfunction-associated steatohepatitis (MASH); experiment: Liver fibrosis score from collagen staining (Picrosirius red) in MASH mice; assay type: in vivo, C57BL/6N mice; settings: 25 mg/kg/day orally for 4 weeks, mean±SD, normal group 0, MASH group 3.11
Procedure: as §1, §2, §3, §4
After preparing the 7 groups, the animals were euthanized using carbon dioxide and the liver tissues were extracted. The extracted tissues were fixed in 4% neutral paraformaldehyde and embedded in paraffin to prepare sections. The paraffin sections were cut to 4-μm thickness, deparaffinized, and then rehydrated. The hydrated sections were stained with a Weigert's iron hematoxylin solution for 8 minutes and then with Picrosirius red for 1 hour. Collagen fibers were stained red and nuclei were stained blue. The sections were photographed using a bright-field microscope (Nikon TE-2000U).
The main mechanism of nonalcoholic fatty liver disease is the induction of hepatic stellate cell activation, which induces collagen production and leads to liver fibrosis due to collagen accumulation. From the result of collagen staining (Picrosirius red) for observing the total amount of collagen deposition in Test Example 3-6, the liver fibrosis score was analyzed. Stages 2 to 3 were diagnosed as nonalcoholic fatty liver disease (MASH) (M. Brunt et al., 2005).
All quantitative data are presented as mean±standard deviation (SD). In each experiment, all measurements were made at least three times, and data were analyzed using the two-tailed, unpaired Student's t test. P values of <0.05 were considered statistically significant.

IC50 [1] | Compound | activity at 1 µM (3T3-L1 pre-adipocytes) | lipid droplet formation and lipid infiltration in liver, Oil Red O staining [2] | Degree of liver fibrosis (fibrosis score) [3] | Degree of liver fibrosis (fibrosis score) ([3]; listed as CK004)
20.9 nM | CN1CCN(CCO/N=C2/C(=C3/C(=O)Nc4ccc(C#N)cc43)Nc3ccccc32)CC1 [Example 4, (2Z,3E)-3-((2-(4-methylpiperazin-1-yl)ethoxy)imino)-2′-oxo-[2,3′-biindolinylidene]-5′-carbonitrile] | 26% | a significant effect of inhibiting lipid infiltration at a level similar to that of the normal group (NCD) | 0.67 | 0.67
5.54 nM | N#Cc1ccc2c(c1)/C(=C1/Nc3ccccc3/C1=N\OCCN1CCSCC1)C(=O)N2 [Example 3, (2Z,3E)-2′-oxo-3-((2-thiomorpholinoethoxy)imino)-[2,3′-biindolinylidene]-5′-carbonitrile] | 28.9% | a significant effect of inhibiting lipid infiltration at a level similar to that of the normal group (NCD) | 1.56 | –
19.3 nM | N#Cc1ccc2c(c1)/C(=C1/Nc3ccccc3/C1=N\OCCN1CCNCC1)C(=O)N2 [Example 1, (2Z,3E)-2′-oxo-3-((2-(piperazin-1-yl)ethoxy)imino)-[2,3′-biindolinylidene]-5′-carbonitrile] | 32.2% | the size and number of lipid droplets were significantly reduced | 2.00 | –
